Data published in ChEMBL document CHEMBL5724564, “Patient-derived NASH model to assess the effects of chemical probes on hepatocyte regenerations” (2024).

System: Hepatocyte spheroids
Experiment: Cell viability is assessed by cellular ATP assay using CellTiter-Glo Luminescent kit. Viability is expressed as average RLU from biological replicates and normalized to negative control.Toxicity is defined as those with normalized ATP significantly less than 80 percent of the negative control.
Format: functional, Homo sapiens
Set-up: unit not given here
Details: not given

| Compound | Proliferation |
| --- | --- |
| Cc1c(NC(=O)c2ccc(C(C)(C)C)cc2)cccc1-c1cn(C)c(=O)c(Nc2ccc(C(=O)N3CCOCC3)cc2)n1 | 0.2187 |
| CCOC(=O)c1c(/C(C#N)=C\N)c2ccc(Cl)c(Cl)c2n1C | 0.874 |
| CCOc1cc(N2CCC(O)CC2)ccc1Nc1ncc2c(n1)N(C)c1ccccc1C(=O)N2C | 0.02286 |
| CNc1nc(-c2ccc3c(N)n[nH]c3c2)cc(N2C[C@@H](C(=O)NC3CCCCC3)CC[C@H]2C)n1 | 0.1604 |
| CSc1ccc(-c2cc3ncnc(SCC(=O)O)c3s2)cc1 | 0.882 |
| CCn1c(-c2nonc2N)nc2c(C#CC(C)(C)O)ncc(OCC3CCCNC3)c21 (configuration not stated) | 0.006402 |
| Cn1cc(-c2ccc3c(c2)CCN3C(=O)Cc2cccc(C(F)(F)F)c2)c2c(N)ncnc21 | 0.03291 |
| CCCCNc1ncc(-c2ccc(CN3CCOCC3)cn2)c(N[C@H]2CC[C@H](O)CC2)n1 | 0.01481 |
| COc1cc2c(cc1OCCCN1CCCC1)N=C(N)C21CCC1 | 0.2543 |
| COc1ccccc1-c1cc(Nc2cccc(CS(N)(=O)=O)c2)ncn1 | 0.2719 |
| COc1ccccc1C(=O)Nc1cc2c(cc1N1CCCC1)n(C)c(=O)n2C | 0.003878 |
| O=C(Nc1ccc2[nH]nc(-c3ccncc3)c2c1)[C@@H]1CCN(CC(=O)N2CCN(c3ccc(-c4ncccn4)cc3)CC2)C1 | 0.03313 |
| Nc1nc(NC2CC2)cc(-c2cccc(Cl)c2Cl)n1 | 0.05031 |
| COc1cc(-c2cn(C)c(=O)c3cnccc23)c(OC)cc1CN(C)C | 0.1518 |
| O=C(N[C@@H]1CCOC1)C1CCN(c2nc3cc(Cl)c(Cl)cc3n2-c2ccc3ccccc3n2)CC1 | 0.003884 |
| CC(=O)c1cc(-c2cc(C(=O)NC3CC3)ccc2C)c2ncccn12 | 0.01914 |
| CN1C[C@H](Nc2cnn(C)c(=O)c2Br)C[C@H](c2ccccc2)C1 | 0.003884 |
| Cc1cc2c(cc1N1C(=O)c3cccc4c(CCCO)ccc(c34)C1=O)n(C)c(=O)n2C | 0.07854 |
| CN(C)[C@H]1CN(C2CCc3cccc(F)c32)C[C@@H]1c1ccc(N2CCN(S(C)(=O)=O)CC2)cc1 (some centres not stated) | 0 |

| Compound | Proliferation |
| --- | --- |
| Nc1ncnc2c1ccn2[C@@H]1O[C@H]([C@H](O)c2ccccc2)[C@@H](O)[C@H]1O | 0.1599 |
| CO[C@H]1CNC[C@@H](OCC2CCC(F)(F)CC2)[C@@H]1Nc1ncc(-c2cncc(C)c2)c2cc(C)c(=O)[nH]c12 | 0.02957 |
| COc1cc(Nc2ccnc3ccc(Br)cc23)cc(OC)c1OC | 0.5391 |
| CCN(CC)S(=O)(=O)Nc1cccc(-c2ccc3c(NC(=O)C4CC4)n[nH]c3c2)c1 | 0.0004 |
| CC(C)(C)S(=O)(=O)c1cc2c(Nc3ccc4scnc4c3)ncnc2cc1OCCO | 0.5541 |
| Cc1cn(-c2cc(NC(=O)c3ccc4c(c3)CN(c3cncnc3)C[C@@H]4C)cc(C(F)(F)F)c2)cn1 | 0.4149 |
| CNCCN1CCC(c2cc(CN(C)C(=O)c3cccc(Oc4ccccc4)c3)ccn2)CC1 | 0.03291 |
| CN(C)C(=O)/C(C#N)=C/c1ccc(-c2nc3cnc4[nH]ccc4c3n2C2CCCCC2)o1 | 0.07463 |
| COc1c(C)cc(NC(=O)c2nn(Cc3ccc(F)cc3)c3c2CN(C(=O)c2ccc[nH]2)C[C@]3(C)C(N)=O)cc1C | 0.06587 |
| Cc1nnc2c3ccccc3c(N[C@@H](C)[C@H](c3ccccc3)N(C)C)nn12 | 0.0435 |
| Cl.Cl.NC1(c2ccc(-c3nc4ccn5c(=O)[nH]nc5c4cc3-c3ccccc3)cc2)CCC1 | 0.5443 |
| CCCCN(CCCC)C(=O)CN1C[C@H](c2cc(OC)c3c(c2)OCO3)[C@@H](C(=O)O)[C@@H]1CC(C)(C)CCC.Cc1ccc(S(=O)(=O)O)cc1 | 0.6131 |
| CCCCN(CCCC)C(=O)CN1C[C@@H](c2cc(OC)c3c(c2)OCO3)[C@H](C(=O)O)[C@H]1CC(C)(C)CCC.Cl | 0.1508 |
| CCNC(=O)c1cc2c(N3CCOCC3C)ccnc2[nH]1 (configuration not stated) | 0.05192 |
| COc1ccccc1C(=O)Nc1cc2c(cc1N1CCNCC1C)n(C)c(=O)n2C (configuration not stated) | 0.1835 |
| O=C(c1ccc2[nH]ccc2c1)N1CCN(S(=O)(=O)c2ccc3[nH]c(=O)oc3c2)CC1 | 0.6071 |
| O=C(Nc1ccc(I)cc1)N1CCC(n2c(=O)[nH]c3c(Br)cccc32)CC1 | 0.001093 |
| Nc1cc(N)c(NC(=O)Nc2ccc(C(=O)N[C@@H](CCC(=O)O)C(=O)O)cc2)c(=O)[nH]1 | 0.01013 |
| CS(=O)(=O)Nc1cc([N+](=O)[O-])ccc1OC1CCCCC1 | 0.6769 |

Same assay, conditions: Concentration range 1nM-1uM

| Compound | Proliferation |
| --- | --- |
| Cc1sc2c(c1C)C(c1ccc(Cl)cc1)=NC(CC(=O)OC(C)(C)C)c1nnc(C)n1-2 (configuration not stated) | 0.001662 |
| Cl.Cl.c1ccc([C@@H]2C[C@H]2NC2CCNCC2)cc1 | 0.6494 |

Same assay, conditions: Concentration range 3nM-3uM

| Compound | Proliferation |
| --- | --- |
| COc1ccc(CCc2nc3cc(-c4c(C)noc4C)ccc3n2C[C@H](C)N2CCOCC2)cc1Cl | 0.2022 |

Same assay, conditions: Concentration range 5nM-5uM

| Compound | Proliferation |
| --- | --- |
| COc1cc2c(NC3CCN(C(C)C)CC3)nc(C3CCCCC3)nc2cc1OCCCN1CCCC1 | 0.05128 |
| CCCc1cc(C)[nH]c(=O)c1CNC(=O)c1cc(-c2ccnc(N3CCN(C)CC3)c2)cc2c1cnn2C(C)C | 0.009822 |
| COc1cc2c(NC3CCN(C(C)C)CC3)nc(N3CCC(F)(F)CC3)nc2cc1OCCCN1CCCC1 | 0.008491 |
| COc1cc2c(cc1NS(=O)(=O)c1ccc(Br)cc1C)n(C)c(=O)n2C | 0.003884 |
| CCC(=O)N1CCOc2c(cc(-c3ccc(OC)c(OC)c3)cc2OCC2CCCN(C)C2)C1 (configuration not stated) | 0.8195 |
| Cn1cc(CCn2cnc(-c3cnn(C)c3)c2-c2ccc(C#N)cc2)cn1 | 0.05329 |

Same assay, conditions: Concentration range 10nM-10uM

| Compound | Proliferation |
| --- | --- |
| COc1ccccc1S(=O)(=O)Nc1ccc2c(c1)CN(C)C(=O)N2 | 0.003099 |
| CC(C)N(CCCNC(=O)Nc1ccc(C(C)(C)C)cc1)C[C@H]1O[C@@H](n2cc(Br)c3c(N)ncnc32)[C@H](O)[C@@H]1O | 0.01234 |
| CCCOc1ccn2c(C(C)=O)cc(-c3ccccc3S(C)(=O)=O)c2c1 | 0.6349 |
| COc1cc(C#N)ccc1S(=O)(=O)Nc1ccc2c(c1)cc(C)c(=O)n2C | 0.0004 |
| O=C(/C=C/N1C[C@H]2C[C@@H]1CN2c1ccccn1)c1ccccc1O | 0.02966 |
| Cc1cc(=O)n(C)c2cc(N3C(=O)CC[C@H](NS(=O)(=O)CC(C)C)[C@H]3c3ccc(Cl)cc3)ccc12 | 0.2341 |
| CCn1cc(-c2cccc(C(F)(F)F)c2)c2sc(C(=N)NC3CCS(=O)(=O)CC3)cc2c1=O | 0.05754 |
| CN1CCN(c2ccc(-c3cccc(CN4CCOCC4)c3)cc2NC(=O)c2c[nH]c(=O)cc2C(F)(F)F)CC1 | 0.001358 |
| CC(C)Oc1ccc(-c2c[nH]cc2CN(C)CCN)cc1 | 0.2793 |
| CNCCN1CCC(OCc2ccccc2)CC1 | 0.406 |
| O=C(NCC(=O)N1CCCC1)Nc1ccc2cnccc2c1 | 0.06734 |
| Clc1cc2c(NC3CCCC3)nnc(-c3ccncc3)c2cc1Cl | 0.02485 |
| O=C(NC[C@H](O)CN1CCc2ccccc2C1)c1ccnc(NC2CCC2)c1 | 0.0004 |
| Cl.O=C([C@@H](Cc1cccc(C(F)(F)F)c1)NS(=O)(=O)c1cc(F)c2c(c1)CCNC2)N1CCCC1 | 0.01564 |
| COc1cc(C(=O)N2CC[C@@H](O)[C@@H](N)C2)cc2nc(-c3cc4ccccc4n3CC3CC3)n(C)c12.Cl | 0.09717 |
